What was measured:
Soybean shoots = assay: Root development of soybean shoot cuttings in 50 ml tubes with water or fertilizer solution ± NAA; format: in vivo; conditions: NAA at 10^-8 M and 10^-7 M; day 12; FIG. 1B
Experimental: Soybean shoots 10 to 15 cm long were cut from 2 similar plants and placed in 50 ml plastic tubes. One shoot was placed in each tube. The tubes contain 50 ml solutions according to the following design: The base solution was either water or a 1:200 dilution of fertilizer stock solution A, B and C. Stock A contains 958.6 grams of 21-5-20 All Purpose from Jack's Professional, 133.8 grams of 15-0-15 Dark Weather (Jack's Professional) and 60.0 grams of 10-0-0 Magnitrate Special (Peter's Excel) in 2 liter of water. Stock B contains 239.6 grams of 15-5-25 Poinsettia Peat-Lite Special (Jack's Professional) in 2 liters of water. Stock C contains 60.0 grams of Epsom salt (magnesium sulfate) in 1.0 liter of water. NAA (1-Naphthaleneacetic acid, Sigma-Aldrich) was added to either water or fertilizer solutions to concentrations of 0, 10^-9 M, 10^-8 M and 10^-7 M. There were 2 fertilizer (with or without) treatments×4 NAA treatments, totaling 8 treatments. The experiment was repeated 3 times, making a total of 24 tubes. The shoots in the solutions were placed in a greenhouse with 20 hour light cycles at 28° C. and 4 hour night cycles at 22° C.

Soybean shoot cuttings = assay: Root development of soybean shoot cuttings in tissue culture boxes with fertilizer solution and NAA; format: in vivo; conditions: higher NAA concentrations (10^-8 M, 10^-7 M, 10^-6 M tested); nine days; FIG. 3
Experimental: Three NAA concentrations at 10^-8 M, 10^-7 M and 10^-6 M with 5 cm, 10 cm and 15 cm long shoots were tested in replicate. Soybean shoot cuttings were taken from plants recovered from tissue culture. Tissue culture boxes (Vitro […]) were used to hold the solutions, and the lids with a 2.5 cm hole in the middle were used to hold the shoots with the help of a cylindrical sponge. NAA solution was obtained from PhytoTechnology Laboratories. Fertilizer was applied from the stock A, B, and C solutions described in Example 1. Three separate 5-liter fertilizer solutions were made by mixing 10 ml each of fertilizer stock solution A, B and C in 4970 ml of tap water. NAA stock solution was added to achieve a final concentration of 10^-8 M, 10^-7 M and 10^-6 M solution, respectively. Soybean shoot cuttings were inserted into the sponge roll, and placed through the lid of the tissue culture box. The shoots in the solutions were placed in a greenhouse with 20 hour light cycles at 27° C. and 4 hour night cycles at 21° C. Data was collected nine days after the shoots were placed in the boxes.

O=C(O)Cc1cccc2ccccc12 [NAA, 1-Naphthaleneacetic acid]
effect of NAA on root growth (root length) (Soybean shoots): positive effects on root growth
effect of NAA on root length (Soybean shoot cuttings): kept the roots shorter
effect of NAA on root number (Soybean shoot cuttings): stimulated more roots from a shoot
